Measurements reported in PubChem BioAssay (NCI).
“And” between values parts separate entries of the source, which are not always exact repeats. Equal values may be shown once.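 Where inhibition never reached the appropriate level, the endpoint shown equals the highest concentration tested. Otherwise, values were interpolated linearly from a five-concentration, 48-hour dose response in 96-well plates. GI50 marks 50% less growth. The concentration for full growth arrest is given as TGI.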

Legend:
Experiment in all cases: DTP human tumour cell line panel, 48 h
EKVX NSCLC = system: EKVX NSCLC
HCT-116 colon = system: HCT-116 colon
HCT-15 colon = system: HCT-15 colon
HT29 colon = system: HT29 colon
K-562 leukemia = system: K-562 leukemia
LOX IMVI melanoma = system: LOX IMVI melanoma
MOLT-4 leukemia = system: MOLT-4 leukemia
SK-MEL-5 melanoma = system: SK-MEL-5 melanoma
SN12C renal = system: SN12C renal
T-47D breast = system: T-47D breast

Row | Structure (SMILES) | GI50 (EKVX NSCLC) | TGI (EKVX NSCLC) | GI50 (HCT-116 colon) | TGI (HCT-116 colon) | GI50 (HCT-15 colon) | TGI (HCT-15 colon) | GI50 (HT29 colon) | TGI (HT29 colon) | GI50 (K-562 leukemia) | TGI (K-562 leukemia) | GI50 (LOX IMVI melanoma) | TGI (LOX IMVI melanoma) | GI50 (MOLT-4 leukemia) | TGI (MOLT-4 leukemia) | GI50 (SK-MEL-5 melanoma) | TGI (SK-MEL-5 melanoma) | GI50 (SN12C renal) | TGI (SN12C renal) | GI50 (T-47D breast) | TGI (T-47D breast)
1 | CCN(CC)CC(O)COc1c(Br)c(Br)c(Br)c2c1OC(C)(C)C2 (centres undefined) | 3.04 µM | 9.64 µM | 3850 nM | > 100 µM | 4.74 µM | 14.7 µM | 1.82 µM | 3.91 µM | 1730 nM | 3.58 µM | 2080 nM | 3.67 µM | 1.67 µM | 3.68 µM | 1820 nM | 3.24 µM | 6220 nM | 19.8 µM | 10.6 µM | 41 µM
2 | CCCOc1ccc(/C=N/Nc2cc(C)nc3ccc(Cl)cc23)cc1 | 1.64 µM | 3.05 µM | 1700 nM | 3.32 µM | 1.52 µM | 2.94 µM | 1.8 µM | 3.49 µM | 1480 nM | 3.13 µM | 1700 nM | 3.1 µM | 1.81 µM | 3.77 µM | 1540 nM | 2.88 µM | 1820 nM | 3.31 µM | 1.71 µM | 3.62 µM
3 | COc1ccc(C2CC(c3ccc4ccccc4c3)=NN2c2nc(O)c(C3=c4cc(OC)ccc4=NC3=O)s2)cc1 (centres undefined) | 0.0898 µM | 0.355 µM | 243 nM | 0.66 µM | 0.0973 µM | 1.09 µM | 0.0458 µM | > 100 µM | 66.2 nM | > 32.3 µM | 35.9 nM | 0.127 µM | 0.11 µM | 0.91 µM | 89.9 nM | 0.243 µM | 166 nM | 0.464 µM | 0.0401 µM | 0.184 µM
4 | c1ccc(-c2cn(-c3ccccc3)c(-c3ccccc3)n2)cc1 | 15.1 µM | 28.9 µM | 1760 nM | 3.27 µM | 3.84 µM | 17.8 µM | 4.79 µM | 20.4 µM | 3540 nM | 18.7 µM | 1950 nM | 4.29 µM | 3.16 µM | > 100 µM | 14900 nM | 28.3 µM | 15400 nM | 30.6 µM | 9.3 µM | 26.2 µM
5 | C/C(=N\O)c1cccc(Nc2cc(-c3ccccc3)nc3c(O)cccc23)c1 | 10.3 µM | 56.7 µM | 2410 nM | 15.9 µM | 2.77 µM | 20.9 µM | 12.3 µM | 42.7 µM | 581 nM | > 53.5 µM | 3120 nM | 19.7 µM |  |  | 1530 nM | 16 µM | 3580 nM | 17.2 µM | 2.36 µM | 30.5 µM
6 | O=c1[nH]c2ccccc2n2cc3ccccc3c12 | 4.74 µM | 69.4 µM | 2120 nM | 12.3 µM | 3.31 µM | 18.6 µM | 4.37 µM | > 100 µM |  |  | 3000 nM | 12 µM | 3.62 µM | 8.77 µM | 1890 nM | 14.9 µM | 1670 nM | 6.32 µM | 7.45 µM | > 100 µM
7 | CCCCCCc1cc2cc(-c3csc(/C=C/c4ccccc4)n3)c(=O)oc2cc1O |  |  | 3390 nM | 12.1 µM | 5.53 µM | > 100 µM | > 100 µM | > 100 µM | 6130 nM | 80.3 µM | 3290 nM | 12.8 µM | 3.72 µM | 15.1 µM | 19300 nM | 49.3 µM | 2120 nM | 4.43 µM | 13.9 µM | > 100 µM
8 | Brc1ccc(Nc2nc3ccccc3nc2Nc2ccc(Br)cc2)cc1 |  |  | 418 nM | 1.65 µM | 0.507 µM | 3.21 µM | 0.404 µM | 10.9 µM | 786 nM | 11.6 µM | 1720 nM | 3.31 µM | 1.15 µM | 9.45 µM | 1560 nM | 3.11 µM | 2160 nM | 6.5 µM | 0.936 µM | 7.09 µM
9 | O=Cc1ccc(-c2ccc(-c3ccc(C=O)o3)[se]2)o1 |  |  | > 100000 nM | > 100 µM | > 80 µM | > 100 µM | > 100 µM | > 100 µM | > 100000 nM | > 100 µM | > 100000 nM | > 100 µM | > 100 µM | > 100 µM | > 100000 nM | > 100 µM | > 100000 nM | > 100 µM | > 100 µM | > 100 µM
10 | O=C(Nc1ccc(I)cc1)c1cccc([N+](=O)[O-])c1O | 2.59 µM | > 100 µM | 3110 nM | 13.8 µM | 3.36 µM | 40.9 µM | 4.84 µM | > 100 µM | 2640 nM | > 100 µM | 3280 nM | > 100 µM | 3.38 µM | 92.3 µM |  |  | 3540 nM | > 100 µM | 2.98 µM | 12.6 µM
11 | N#Cc1c2ccccc2c2nnc3ccc(C(F)(F)F)cc3n12 |  |  | 58400 nM | > 100 µM | 40.6 µM | > 100 µM | 61.8 µM | > 100 µM | 59900 nM | > 100 µM | 21600 nM | 94.5 µM | 10.4 µM | > 100 µM | 16100 nM | 39.8 µM | > 100000 nM | > 100 µM | > 100 µM | > 100 µM
12 | C=C1C(=O)OC2CC1C(OC(C)=O)C/C(C)=C/CC/C(C)=C\CCC2(C)O (centres undefined) |  | 16 µM and 14 µM |  | 12.2 µM and 7.66 µM |  | 13.5 µM and 3.63 µM | 1.69 µM and 4.87 µM | 6.44 µM and 18 µM |  |  |  |  |  | 6.23 µM and 7.81 µM | 6820 nM and 2880 nM | 24 µM and 10.8 µM |  | 11.3 µM and 16.6 µM |  | 14.6 µM and 62.7 µM
13 | O=C1/C(=C\c2ccccc2)CN(C(=O)c2ccccc2)C/C1=C\c1ccccc1 |  |  | 321 nM | 1.1 µM | 2.02 µM | 5.9 µM | 1.91 µM | 4.09 µM | 1670 nM | > 100 µM | 1380 nM | 2.89 µM | 3.19 µM | 43.6 µM | 1640 nM | 3.06 µM | 1900 nM | 4.31 µM | 4.93 µM | 19.9 µM
